Measured values: US20250144067A1, “PERSONALIZED STARVATION THERAPY FOR CANCER” (Faeth Therapeutics, Inc., priority 2021, published 2025)
Structures can show the parent of a compound that is named as a salt.

Tests used:
[1] = system: NCI-H292 lung cancer cells; experiment: FDA drug screening, complete media vs cholesterol-free media without statin (TABLE 1); assay type: cell-based, human
[2] = system: NCI-H292 lung cancer cells; experiment: FDA drug screening, complete media vs cholesterol-free media with simvastatin (TABLE 2); assay type: cell-based, human; details: for Cholesterol-free media + simvastatin (0.04 μM) / Complete Media: NCI-H292 cells
[3] = Complete minus Cholesterol-free, >0 enhanced anti-cancer activity, about 0 neutral, <0 antagonist
[4] = NCI-H292 cells, cholesterol-free media without statin, FDA drug library screen
[5] = NCI-H292 cells, complete media, FDA drug library screen
[6] = drug in cholesterol-free media with simvastatin 0.04 μM
[7] = complete media vs cholesterol-free media + simvastatin (0.04 μM), >0 enhanced anti-cancer activity, about 0 neutral, <0 antagonist
[8] = NCI-H292 cells, cholesterol-free media without statin
[9] = Complete minus Cholesterol-free, greater than 0 enhanced anti-cancer activity, about 0 neutral, below 0 antagonists
[10] = NCI-H292 cells in cholesterol-free media without statin
[11] = NCI-H292 cells in complete media
[12] = cholesterol-free media with simvastatin 0.04 μM, FDA drug library screen (TABLE 2)
[13] = complete media minus cholesterol-free media + simvastatin (0.04 μM), >0 enhanced anti-cancer activity, about 0 neutral, <0 antagonist
[14] = FDA drug library screen, cholesterol-free media with simvastatin 0.04 μM
[15] = FDA drug library screen, complete media
[16] = complete media minus cholesterol-free media + simvastatin, >0 enhanced anti-cancer activity, about 0 neutral, <0 antagonist
[17] = complete vs cholesterol-free media, greater than 0 enhanced anti-cancer activity, about 0 neutral, below 0 antagonists
[18] = cholesterol-free media with simvastatin 0.04 μM, cell growth value in FDA drug screen
[19] = complete media, cell growth value in FDA drug screen
[20] = complete media vs cholesterol-free media + simvastatin (0.04 μM), […]
[21] = FDA library drug in cholesterol-free media with simvastatin 0.04 μM
[22] = FDA library drug in complete media
[23] = complete media, FDA drug library screen (TABLE 2)
[24] = Complete minus Cholesterol-free, greater than 0 enhanced anti-cancer activity, about 0 neutral, below 0 antagonist
[25] = NCI-H292 cells, FDA drug library screen, cholesterol-free media without statin
[26] = NCI-H292 cells, FDA drug library screen, complete media
[27] = complete vs cholesterol-free media, […]

CCCN(CCC)S(=O)(=O)c1ccc(C(=O)O)cc1 [Probenecid]
Difference [1, 3]: −0.02
Cholesterol-free [1, 4]: 0.9245
Complete [1, 5]: 0.9089
Cholesterol-free media + simvastatin (0.04 μM) [2, 6]: 1.512
Complete Media ([2]; drug in complete media): 1.266
Difference [2, 7]: −0.25

[H]/N=C(/N)NS(=O)(=O)c1ccc(N)cc1 [Sulfaguanidine]
Difference [1, 3]: −0.24
Cholesterol-free [1, 8]: 1.183
Complete ([1]; NCI-H292 cells, complete media): 0.939
Cholesterol-free media + simvastatin (0.04 μM) [2, 6]: 1.092
Complete Media ([2]; drug in complete media): 0.8866
Difference [2, 7]: −0.21

Ibutilide (fumarate)
Difference [1, 9]: −1.13
Cholesterol-free [1, 10]: 1.969
Complete [1, 11]: 0.8391
Cholesterol-free media + simvastatin (0.04 μM) [2, 12]: 1.045
Difference [2, 13]: −0.02

Cc1ccc(Cl)c(Nc2ccccc2C(=O)O)c1Cl [Meclofenamate (sodium)]
Difference [1, 9]: −0.59
Cholesterol-free [1, 10]: 1.453
Complete [1, 11]: 0.8579
Cholesterol-free media + simvastatin (0.04 μM) [2, 14]: 1.009
Complete Media [2, 15]: 1.718
Difference [2, 16]: 0.71

Sultamicillin (tosylate)
Cholesterol-free [1, 8]: 1.337
Complete ([1]; NCI-H292 cells, complete media): 1.021
Difference [1, 17]: −0.32
Cholesterol-free media + simvastatin (0.04 μM) [2, 18]: 1.072
Complete Media [2, 19]: 1.191
Difference [2, 16]: 0.12

N[C@@H]1[C@H]2CN(c3nc4c(cc3F)c(=O)c(C(=O)O)cn4-c3ccc(F)cc3F)C[C@@H]12 [Trovafloxacin]
Cholesterol-free [1, 8]: 1.186
Complete ([1]; NCI-H292 cells, complete media): 0.8678
Difference [1, 17]: −0.32
Cholesterol-free media + simvastatin (0.04 μM) [2, 18]: 1.092
Complete Media [2, 19]: 1.114
Difference [2, 16]: 0.02

[NH2][Pt]1([NH2])[O]CC(=O)[O]1 [Nedaplatin]
Difference ([1]; Complete minus Cholesterol-free, […]): −0.25
Cholesterol-free [1, 8]: 1.253
Complete ([1]; NCI-H292 cells, complete media): 1.005
Cholesterol-free media + simvastatin (0.04 μM) [2, 6]: 1.191
Complete Media ([2]; drug in complete media): 0.986
Difference [2, 20]: −0.20

CCOC(=O)[C@H](CCc1ccccc1)N[C@@H](C)C(=O)N1Cc2ccccc2C[C@H]1C(=O)O [Quinapril (hydrochloride)]
Cholesterol-free [1, 4]: 0.6191
Complete [1, 5]: 0.9945
Difference ([1]; complete vs cholesterol-free media, >0 enhanced anti-cancer activity, about 0 neutral, <0 antagonist): 0.38
Cholesterol-free media + simvastatin (0.04 μM) [2, 21]: 1.23
Complete Media [2, 22]: 0.862
Difference [2, 7]: −0.37

CCCCCCCCCCCCCCCCCCOCC(O)CO (stereo not shown) [Batilol]
Difference [1, 9]: −0.55
Cholesterol-free [1, 10]: 1.321
Complete [1, 11]: 0.7704
Cholesterol-free media + simvastatin (0.04 μM) [2, 12]: 0.9215
Complete Media [2, 23]: 0.9293
Difference [2, 13]: 0.01

Iproniazid (phosphate)
Difference [1, 3]: −0.26
Complete ([1]; NCI-H292 cells, complete media): 0.8468
Difference [2, 7]: −0.09

C=CC(=O)Nc1cc(Nc2nccc(-c3cn(C)c4ccccc34)n2)c(OC)cc1N(C)CCN(C)C [Osimertinib]
Difference [1, 24]: −0.14
Cholesterol-free [1, 25]: 0.477
Complete [1, 26]: 0.3332
Cholesterol-free media + simvastatin (0.04 μM) [2, 18]: 0.2666
Complete Media [2, 19]: 0.3123
Difference [2, 16]: 0.05

CC(=O)c1ccc2c(c1)N(CCCN1CCC(CCO)CC1)c1ccccc1S2 [Piperacetazine]
Difference [1, 9]: −0.82
Cholesterol-free [1, 10]: 1.769
Complete [1, 11]: 0.9455
Cholesterol-free media + simvastatin (0.04 μM) [2, 14]: 1.088
Complete Media [2, 15]: 0.9352
Difference [2, 7]: −0.15

c1cnc2cc3c(cc2n1)[C@@H]1CNC[C@H]3C1 [Varenicline]
Difference [1, 9]: −0.54
Cholesterol-free [1, 10]: 1.353
Complete [1, 11]: 0.8146
Cholesterol-free media + simvastatin (0.04 μM) [2, 21]: 1.359
Complete Media [2, 22]: 1.033
Difference [2, 7]: −0.33

CC(=O)O[C@H]1C(=O)[C@@]2(C)[C@H]([C@H](OC(=O)c3ccccc3)[C@]3(O)C[C@H](OC(=O)[C@H](O)[C@@H](NC(=O)c4ccccc4)c4ccccc4)C(C)=C1C3(C)C)[C@]1(OC(C)=O)CO[C@@H]1C[C@@H]2O [Paclitaxel]
Difference [1, 3]: −0.01
Cholesterol-free [1, 4]: 0.0662
Complete [1, 5]: 0.05705
Cholesterol-free media + simvastatin (0.04 μM) [2, 12]: 0.2107
Complete Media [2, 23]: 0.1648
Difference [2, 13]: −0.05

CCC(=O)O[C@H]1CC[C@H]2[C@@H]3CCC4=CC(=O)CC[C@]4(C)[C@H]3CC[C@]12C [Testosterone propionate]
Cholesterol-free [1, 8]: 1.308
Complete ([1]; NCI-H292 cells, complete media): 0.9212
Difference [1, 27]: −0.39
Cholesterol-free media + simvastatin (0.04 μM) [2, 21]: 1.059
Complete Media [2, 22]: 0.7669
Difference [2, 20]: −0.29

C[C@@H]1C/C=C/C=C/C=C/C=C/[C@H](O[C@@H]2O[C@H](C)[C@@H](O)[C@H](N)[C@@H]2O)C[C@@H]2O[C@](O)(C[C@@H](O)C[C@H]3O[C@@H]3/C=C/C(=O)O1)C[C@H](O)[C@H]2C(=O)O [Natamycin]
Difference [1, 24]: −0.07
Cholesterol-free [1, 25]: 1.061
Complete [1, 26]: 0.9893
Cholesterol-free media + simvastatin (0.04 μM) [2, 14]: 1.218
Complete Media [2, 15]: 1.127
Difference [2, 7]: −0.09

COc1c(O)cc2c(c1O)[C@@H]1O[C@H](CO)[C@@H](O)[C@H](O)[C@H]1OC2=O [Bergenin]
Difference [1, 3]: −0.21
Cholesterol-free [1, 8]: 0.9949
Complete ([1]; NCI-H292 cells, complete media): 0.7827
Cholesterol-free media + simvastatin (0.04 μM) [2, 18]: 0.6754
Complete Media [2, 19]: 0.7494
Difference [2, 16]: 0.07

Nc1ccc(S(=O)(=O)c2ccc(N)cc2)cc1 [Dapsone]
Difference [1, 9]: −0.48
Cholesterol-free [1, 10]: 1.475
Complete [1, 11]: 0.9984
Cholesterol-free media + simvastatin (0.04 μM) [2, 14]: 0.9689
Complete Media [2, 15]: 1.132
Difference [2, 16]: 0.16

CNCC(=O)N[C@@H](CCCN=C(N)N)C(=O)N[C@H](C(=O)N[C@@H](Cc1ccc(O)cc1)C(=O)N[C@H](C(=O)N[C@@H](Cc1cnc[nH]1)C(=O)N1CCC[C@H]1C(=O)N[C@@H](C)C(=O)O)C(C)C)C(C)C [Saralasin (TFA)]
Cholesterol-free [1, 4]: 1.11
Complete [1, 5]: 1.396
Difference [1, 27]: 0.29
Cholesterol-free media + simvastatin (0.04 μM) ([2]; cholesterol-free media with simvastatin 0.04 μM, […]): 0.7862
Complete Media ([2]; complete media, […]): 0.8195
Difference ([2]; complete media minus cholesterol-free media + simvastatin, […]): 0.03

(+)-Catechin hydrate
Difference [1, 3]: 0.05
Difference [2, 13]: −0.05

CC(C)(Oc1ccc(C(=O)c2ccc(Cl)cc2)cc1)C(=O)[O-].C[N+](C)(C)CCO [Choline Fenofibrate]
Difference [1, 9]: −0.65
Cholesterol-free [1, 10]: 1.252
Complete [1, 11]: 0.6045
Cholesterol-free media + simvastatin (0.04 μM) [2, 14]: 1.101
Complete Media [2, 15]: 1.295
Difference [2, 16]: 0.19

CC[C@H]1CN2CC[C@H]1C[C@@H]2[C@@H](O)c1ccnc2ccc(OC)cc12 [Hydroquinidine]
Difference [1, 3]: 0.06
Cholesterol-free [1, 4]: 0.8191
Complete [1, 5]: 0.8815
Cholesterol-free media + simvastatin (0.04 μM) [2, 21]: 1.791
Complete Media [2, 22]: 1.518
Difference [2, 7]: −0.27

CN(C)c1cc(CNCC(C)(C)C)c(O)c2c1C[C@H]1C[C@H]3[C@H](N(C)C)C(O)=C(C(N)=O)C(=O)[C@@]3(O)C(O)=C1C2=O [Omadacycline (hydrochloride)]
Difference [1, 24]: −0.15
Cholesterol-free [1, 25]: 1.103
Complete [1, 26]: 0.9531
Cholesterol-free media + simvastatin (0.04 μM) [2, 14]: 1.209
Complete Media [2, 15]: 1.089
Difference [2, 7]: −0.12
